Experimental data taken from the supplement of paper PMC11208160.

Test: recombinant UMI read abundance after kanamycin selection (control-corrected) (log10(CPM+1)); higher = more efficient recombination; extreme values may be limits of the assay; sequences stand for … in AGTGCAGAGAAAATCGGCCAGTTTTCTCTGCCTGCAGTCCGCATGCCGTGGGACCCCTTGGGTTCTAACCTGTTGCCTAGATTTATGCAGCGGACTGCCTTTCTCCCAAAGTGATAAACCGG…AGGTTGGTTTCACT; site = the 11-nt donor
Procedure, shortened: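 Values are reported as log10(CPM+1), obtained by converting sequencing counts to CPM, averaging replicates and scaling by control-derived factors. The counts came from recombinant UMIs amplified by PCR across the donor–target junction. These UMIs came from a pooled Escherichia coli screen of donor and donor-binding-loop pairs for the IS621 bridge recombinase, plated with IPTG (0.07 mM) plus kanamycin or left unselected, in two replicates each.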
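Also: IS621 bridge recombinase in Escherichia coli cells against a fixed T5 target plasmid.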

Sequence | recombinant UMI read abundance (log10)
CTAGACTCATGGACCGGTTTTCCCGGTAATCCGTATTTGAC (site CTAGACTCTGT) | 3.29
CTAGACTCATGGACCGGTTTTCCCGGTAATCCGTATTTGAC (site CTAGTATCTGT) | 0
CTAGACTCATGGACCGGTTTTCCCGGTAATCCGTATTTGCT (site CTAGACTCTAG) | 3.32
CTAGAGACATGGACCGGTTTTCCCGGTAATCCGTATTTGTC (site CTAGAGACTGA) | 2.28
CTAGCATCATGGACCGGTTTTCCCGGTAATCCGTATTTGAC (site CTAGAATCTGT) | 0.337
CTAGCATCATGGACCGGTTTTCCCGGTAATCCGTATTTGAC (site CTAGCATCTGT) | 3.04
CTAGCATCATGGACCGGTTTTCCCGGTAATCCGTATTTGAC (site CTAGGATCTGT) | 0.773
CTAGCATCATGGACCGGTTTTCCCGGTAATCCGTATTTGAC (site CTAGTATCTGT) | 2.13
CTAGCGACATGGACCGGTTTTCCCGGTAATCCGTATTTGCC (site CTAGCGACTGG) | 3.09
CTAGCTTCATGGACCGGTTTTCCCGGTAATCCGTATTTGAC (site CTAGCTTCTGT) | 2.18
CTAGCTTCATGGACCGGTTTTCCCGGTAATCCGTATTTGAC (site CTAGTATCTGT) | 0
CTAGGACCATGGACCGGTTTTCCCGGTAATCCGTATTTGAC (site CTAGGACCTGT) | 0
CTAGGACCATGGACCGGTTTTCCCGGTAATCCGTATTTGAC (site CTAGTATCTGT) | 0.00955
CTAGGATCATGGACCGGTTTTCCCGGTAATCCGTATTTGAT (site CTAGGATCTAT) | 1.95
CTAGGATCATGGACCGGTTTTCCCGGTAATCCGTATTTGAT (site CTAGTATCTGT) | 0.00727
CTAGGATCATGGACCGGTTTTCCCGGTAATCCGTATTTGGC (site CTAGGATCTGC) | 2.55
CTAGGATCATGGACCGGTTTTCCCGGTAATCCGTATTTGGC (site CTAGTATCTGT) | 0.606
CTAGGGTCATGGACCGGTTTTCCCGGTAATCCGTATTTGAC (site CTAGGGTCTGT) | 1.41
CTAGGGTCATGGACCGGTTTTCCCGGTAATCCGTATTTGAC (site CTAGTATCTGT) | 1.43
CTAGGTTCATGGACCGGTTTTCCCGGTAATCCGTATTTGCG (site CTAGGTTCTCG) | 2.47
CTAGTAGCATGGACCGGTTTTCCCGGTAATCCGTATTTGAA (site CTAGTAGCTTT) | 2.15
CTAGTAGCATGGACCGGTTTTCCCGGTAATCCGTATTTGAA (site CTAGTATCTGT) | 0
CTAGTATCATGGACCGGTTTTCCCGGTAATCCGTATTTGAC (site ACAGTATCTGT) | 0.654

Sequence | recombinant UMI read abundance (log10)
CTAGTATCATGGACCGGTTTTCCCGGTAATCCGTATTTGAC (site ATACTATCTGT) | 0.00668
CTAGTATCATGGACCGGTTTTCCCGGTAATCCGTATTTGAC (site ATAGCATCTGT) | 0
CTAGTATCATGGACCGGTTTTCCCGGTAATCCGTATTTGAC (site ATAGTAGCTGT) | 0.00849
CTAGTATCATGGACCGGTTTTCCCGGTAATCCGTATTTGAC (site ATAGTATCTGG) | 0.298
CTAGTATCATGGACCGGTTTTCCCGGTAATCCGTATTTGAC (site ATAGTATCTGT) | 0.432
CTAGTATCATGGACCGGTTTTCCCGGTAATCCGTATTTGAC (site ATAGTATCTTT) | 0.00657
CTAGTATCATGGACCGGTTTTCCCGGTAATCCGTATTTGAC (site ATAGTTTCTGT) | 0
CTAGTATCATGGACCGGTTTTCCCGGTAATCCGTATTTGAC (site ATGGTATCTGT) | 0.837
CTAGTATCATGGACCGGTTTTCCCGGTAATCCGTATTTGAC (site CAAATATCTGT) | 0
CTAGTATCATGGACCGGTTTTCCCGGTAATCCGTATTTGAC (site CAAGAATCTGT) | 0
CTAGTATCATGGACCGGTTTTCCCGGTAATCCGTATTTGAC (site CAAGTAACTGT) | 0.0563
CTAGTATCATGGACCGGTTTTCCCGGTAATCCGTATTTGAC (site CAAGTATCTCT) | 0.473
CTAGTATCATGGACCGGTTTTCCCGGTAATCCGTATTTGAC (site CAAGTATCTGA) | 0
CTAGTATCATGGACCGGTTTTCCCGGTAATCCGTATTTGAC (site CAAGTATCTGT) | 2.47
CTAGTATCATGGACCGGTTTTCCCGGTAATCCGTATTTGAC (site CAAGTCTCTGT) | 0
CTAGTATCATGGACCGGTTTTCCCGGTAATCCGTATTTGAC (site CACGTATCTGT) | 0.0166
CTAGTATCATGGACCGGTTTTCCCGGTAATCCGTATTTGAC (site CCACTATCTGT) | 0
CTAGTATCATGGACCGGTTTTCCCGGTAATCCGTATTTGAC (site CCAGCATCTGT) | 0.00896
CTAGTATCATGGACCGGTTTTCCCGGTAATCCGTATTTGAC (site CCAGTAGCTGT) | 0
CTAGTATCATGGACCGGTTTTCCCGGTAATCCGTATTTGAC (site CCAGTATCTGG) | 0
CTAGTATCATGGACCGGTTTTCCCGGTAATCCGTATTTGAC (site CCAGTATCTGT) | 2.69
CTAGTATCATGGACCGGTTTTCCCGGTAATCCGTATTTGAC (site CCAGTATCTTT) | 0.412
CTAGTATCATGGACCGGTTTTCCCGGTAATCCGTATTTGAC (site CCAGTTTCTGT) | 0

Sequence | recombinant UMI read abundance (log10)
CTAGTATCATGGACCGGTTTTCCCGGTAATCCGTATTTGAC (site CCGGTATCTGT) | 0.281
CTAGTATCATGGACCGGTTTTCCCGGTAATCCGTATTTGAC (site CGAGGATCTGT) | 0
CTAGTATCATGGACCGGTTTTCCCGGTAATCCGTATTTGAC (site CGAGTACCTGT) | 0
CTAGTATCATGGACCGGTTTTCCCGGTAATCCGTATTTGAC (site CGAGTATCTAT) | 0
CTAGTATCATGGACCGGTTTTCCCGGTAATCCGTATTTGAC (site CGAGTATCTGC) | 0
CTAGTATCATGGACCGGTTTTCCCGGTAATCCGTATTTGAC (site CGAGTATCTGT) | 0.849
CTAGTATCATGGACCGGTTTTCCCGGTAATCCGTATTTGAC (site CGAGTGTCTGT) | 0
CTAGTATCATGGACCGGTTTTCCCGGTAATCCGTATTTGAC (site CGATTATCTGT) | 0
CTAGTATCATGGACCGGTTTTCCCGGTAATCCGTATTTGAC (site CGTGTATCTGT) | 0
CTAGTATCATGGACCGGTTTTCCCGGTAATCCGTATTTGAC (site CTAAAATCTGT) | 0
CTAGTATCATGGACCGGTTTTCCCGGTAATCCGTATTTGAC (site CTAATAACTGT) | 0
CTAGTATCATGGACCGGTTTTCCCGGTAATCCGTATTTGAC (site CTAATATCTCT) | 0.764
CTAGTATCATGGACCGGTTTTCCCGGTAATCCGTATTTGAC (site CTAATATCTGA) | 0
CTAGTATCATGGACCGGTTTTCCCGGTAATCCGTATTTGAC (site CTAATATCTGT) | 1.63
CTAGTATCATGGACCGGTTTTCCCGGTAATCCGTATTTGAC (site CTAATCTCTGT) | 0
CTAGTATCATGGACCGGTTTTCCCGGTAATCCGTATTTGAC (site CTACCATCTGT) | 0
CTAGTATCATGGACCGGTTTTCCCGGTAATCCGTATTTGAC (site CTACTAGCTGT) | 0
CTAGTATCATGGACCGGTTTTCCCGGTAATCCGTATTTGAC (site CTACTATCTGG) | 0
CTAGTATCATGGACCGGTTTTCCCGGTAATCCGTATTTGAC (site CTACTATCTGT) | 0.925
CTAGTATCATGGACCGGTTTTCCCGGTAATCCGTATTTGAC (site CTACTATCTTT) | 0.0334
CTAGTATCATGGACCGGTTTTCCCGGTAATCCGTATTTGAC (site CTACTTTCTGT) | 0
CTAGTATCATGGACCGGTTTTCCCGGTAATCCGTATTTGAC (site CTAGAAACTGT) | 0
